In brackets after ≈: the same amount, converted by molar mass.
Experiments:
A. pacificum [1] = assay: Algicidal activity assay, EC50; type: cell-based, Alexandrium pacificum; details: Alexandrium pacificum; Mean ± SD, n = 3
Description: (§1) P. minimum, A. pacificum, and S. costatum were purchased from Guangyu Biological Technology Co., Ltd. (Shanghai, China). The algae strain was cultured in F/2 medium ((12 h light: 12 h dark cycle), 20 ± 1 °C, 70 μmol m^−2 s^−1). Purchased algae were transferred to sterile conical flasks for culture; after the algae proliferation was stabilized, the expanded culture was next carried out following standard conditions.
(§2) Copper sulfate and Diuron were used as the positive controls. EC50 values were calculated according to the equation of the quantity–effect relationship in Equation (2) using the Hill model of Graph Pad Prism software (8.0.2). (2) Y=Bottom+(Top-Bottom)/1+10^(Log EC50-X)×Hill Slope
(§3) The X and Y values represent the concentration (mg/L) and response values of the control and experimental groups, respectively. The Top, Bottom, and Hill Slope represent the maximum response, minimum response, and the curve slope, respectively. The EC50 represents half of the maximum effective concentration.

PSII in P. minimum = assay: Quantum yield Fv/Fm of PSII; type: cell-based, Prorocentrum minimum; details: 10 mg/L, 72 h, versus negative control
Description: (§4) P. minimum, S. costatum, and A. pacificum cells were cultured in F/2 medium. All flasks were cultivated under 12 h of light: 12 h of dark and 70 μmol m^−2 s^−1 at 20 ± 1 °C. […] Finally, the algal cells were collected and diluted in 6 mL of phosphate buffer (pH = 7.8). A small amount of quartz sand was added into the algal cells under ice bath. The obtained homogenate was next poured into a centrifuge tube and centrifuged at 5000 r/min for 25 min at 4 °C. The obtained supernatant was placed in the refrigerator at 4 °C for the next step experiment.
(§5) Fv/Fm values were determined by using AquaPen handheld algae fluorescence meter (Nanjing Mingao Instrument Co., Ltd., Nanjing, China). The algae cells were darkened for 30 min and Fv/Fm values were measured.

S. costatum [2] = assay: Algicidal activity assay, EC50; type: cell-based, Skeletonema costatum; details: Skeletonema costatum; Mean ± SD, n = 3; read-out: EC50 S. costatum
Description: as §1, §2, §3

Alternaria sp. = test system: Alternaria sp.; parameters: method as in PMID 32483303; details: cited from earlier work
[3] = test system: other microalgae (e.g., diatoms, cyanobacteria, green algae); parameters: method as in doi:10.1016/j.tetlet.2003.08.115, PMID 17454826; details: cited from earlier work
P. minimum [4] = assay: Algicidal activity assay, EC50; type: cell-based, Prorocentrum minimum; details: Prorocentrum minimum; Mean ± SD, n = 3; read-out: EC50 P. minimum
Description: as §1, §2, §3

P. minimum [5] = assay: MDA level (thiobarbituric acid assay kit); type: cell-based, Prorocentrum minimum; details: 10 mg/L, 72 h, versus control (DMSO)
Description: as §4
(§6) The malondialdehyde (MDA) assay kit was purchased from Lvyuandade Biochemical Co, Ltd., Beijing, China. The MDA parameter was monitored according to the procedure provided by the manufacturer. A total of 1 mL of algal extract was mixed with thiobarbituric acid solution (2 mL, 0.6%). The solution was sealed and kept in a boiling water bath for 15 min, followed by being cooled and centrifuged at 4500 r/min for 10 min. The absorbance values of collected supernatant were measured and calculated by the Formula (3) at 600 nm, 532 nm, and 450 nm:MDA content (nmol∙mgprot^−1) = 6.45 × (A532 − A600) − 0.56 × A450(3)

zebrafish = assay: Zebrafish acute toxicity assay; type: in vivo; details: zebrafish
Description: Zebrafish acute toxicity of bacillamide A and synthesized BDs were evaluated at 0.1 mg/L, 1 mg/L, and 10 mg/L, respectively. Diuron and CuSO4 were used as positive controls. The commercial zebrafish (body length > 3.0 cm) were domesticated in aerated tap water for 24 h, fed once daily for seven consecutive days, and stopped being fed before the experiment.
4. Acute toxicity table S1.
Compound Concentration Survival percent Acute
aAccording to the Guide for Environmental Safety Assessment of Chemical Pesticides
4 groups and treated with different compounds for 96 h.

PSII in S. costatum = assay: Quantum yield Fv/Fm of PSII; type: cell-based, Skeletonema costatum; details: 10 mg/L, 72 h, versus negative control
Description: as §4, §5

A. pacificum [6] = assay: Growth-inhibition rate measurement at 50 mg/L, 24 h; type: cell-based, Alexandrium pacificum; details: Alexandrium pacificum, read-out: inhibition rate against A. pacificum
Description: as §1
The stock solutions of bacillamide A and different BDs were prepared in dimethyl sulfoxide (DMSO) with the requisition amount. […] The controls received the same volume of DMSO. The inhibitory activities of bacillamide A, different BDs, and positive controls were screened by 96 well microtiter plates at different concentrations. Inhibition ratios (IRs) of cupric sulfate (50 mg/L, positive control), bacillamide A (50 mg/L), and BDs (50 mg/L) were calculated on algae using Equation (1). (1) IR=Cc0-Cex/Cc0×100%
The CC0 and Cex, respectively, represent the algal densities of the control and experimental groups.

Salmonella choleraesuis = test system: Salmonella choleraesuis; parameters: method as in PMID 32483303; details: cited from earlier work
S. costatum [7] = assay: MDA level (thiobarbituric acid assay kit); type: cell-based, Skeletonema costatum; details: 10 mg/L, 72 h, versus control (DMSO)
Description: as §4, §6

Vibrio cholerae = test system: Vibrio cholerae; parameters: method as in PMID 32483303; details: cited from earlier work

CC(=O)c1nc(C(=O)NCCc2c[nH]c3ccccc23)cs1 [bacillamide A]
EC50 (A. pacificum [1]): 2.17 ± 0.31 µg/mL (≈ 6.92 µM) | decrease of Fv/Fm of PSII in P. minimum (PSII in P. minimum): 2 fold | EC50 (S. costatum [2]): 2.51 ± 0.09 µg/mL (≈ 8.01 µM) | antifungal activity (Alternaria sp.): slight antifungal activity | algicidal activities against other microalgae [3]: did not display algicidal activities | EC50 (P. minimum [4]): 3.93 ± 0.28 µg/mL (≈ 12.5 µM) | increase of MDA levels in P. minimum (P. minimum [5]): 2.0 fold | Survival percent (zebrafish; 0.1 mg/L, 0h): 100 | Survival percent (zebrafish; 0.1 mg/L, 24h): 100 | Survival percent (zebrafish; 0.1 mg/L, 48h): 100 | Survival percent (zebrafish; 0.1 mg/L, 72h): 100 | Survival percent (zebrafish; 0.1 mg/L, 96h): 100 | Survival percent (zebrafish; 1 mg/L, 0h): 100 | Survival percent (zebrafish; 1 mg/L, 24h): 100 | Survival percent (zebrafish; 1 mg/L, 48h): 87 | Survival percent (zebrafish; 1 mg/L, 72h): 83 | Survival percent (zebrafish; 1 mg/L, 96h): 83 | Survival percent (zebrafish; 10 mg/L, 0h): 100 | Survival percent (zebrafish; 10 mg/L, 24h): 100 | Survival percent (zebrafish; 10 mg/L, 48h): 100 | Survival percent (zebrafish; 10 mg/L, 72h): 100 | Survival percent (zebrafish; 10 mg/L, 96h): 100 | Acute toxicity (zebrafish; class by GB/T31270.12, LC50 (96 h)): low (LC50 (96 h) > 10 mg/L, low toxicity) | decrease of quantum yield Fv/Fm of PSII in S. costatum (PSII in S. costatum): 4 fold | inhibition at 50 µg/mL (A. pacificum [6]): 55.3% | antibacterial activity (Salmonella choleraesuis): moderate antibacterial activity | increase of MDA levels in S. costatum (S. costatum [7]): 2.6 fold | antibacterial activity (Vibrio cholerae): moderate antibacterial activity
